Test results published in PubChem BioAssay AID248 (DTP/NCI, 2004).
Where “and” joins values, the source holds several entries; their conditions need not be identical. Equal values may be shown once. Toxic doses and inconclusive results are not listed. Cut-off read from the data, not from the text of the source: active = T/C of 150% or more; inactive = T/C below 125%.

System: L1210 leukemia ip in BDF1 mice, survival T/C
Experiment: NCI In Vivo Anticancer Drug Screen. Data for tumor model L1210 Leukemia (intraperitoneal) in B6D2F1 (BDF1) mice
Details: endpoint: mean survival time, higher = longer survival
Method in brief: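 Read-out is survival time, reported as the treated-group measurement over the vehicle-control measurement.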

[1] = dose: 100.0 mg/kg/injection, schedule: Q01DX009 (ip), vehicle: Klucel (hydroxypropylcellulose) (HPC)
[2] = dose: 100.0 mg/kg/injection, schedule: Q04DX003 (ip), vehicle: Klucel (hydroxypropylcellulose) (HPC)
[3] = dose: 200.0 mg/kg/injection, schedule: Q01DX009 (ip), vehicle: Klucel (hydroxypropylcellulose) (HPC)
[4] = dose: 200.0 mg/kg/injection, schedule: Q04DX003 (ip), vehicle: Klucel (hydroxypropylcellulose) (HPC)
[5] = dose: 400.0 mg/kg/injection, schedule: Q04DX003 (ip), vehicle: Klucel (hydroxypropylcellulose) (HPC)
[6] = dose: 100.0 mg/kg/injection, schedule: Q01DX001 (ip), vehicle: saline
[7] = dose: 200.0 mg/kg/injection, schedule: Q01DX001 (ip), vehicle: saline
[8] = dose: 400.0 mg/kg/injection, schedule: Q01DX001 (ip), vehicle: saline
[9] = dose: 100.0 mg/kg/injection, schedule: Q04DX003 (ip), vehicle: saline with Tween-80
[10] = dose: 200.0 mg/kg/injection, schedule: Q04DX003 (ip), vehicle: saline with Tween-80
[11] = dose: 400.0 mg/kg/injection, schedule: Q04DX003 (ip), vehicle: saline with Tween-80
[12] = dose: 200.0 mg/kg/injection, schedule: Q04DX002 (ip), vehicle: saline with Tween-80
[13] = dose: 400.0 mg/kg/injection, schedule: Q04DX002 (ip), vehicle: saline with Tween-80
[14] = dose: 100.0 mg/kg/injection, schedule: Q01DX009 (ip), vehicle: saline with Tween-80
[15] = dose: 200.0 mg/kg/injection, schedule: Q01DX009 (ip), vehicle: saline with Tween-80
[16] = dose: 400.0 mg/kg/injection, schedule: Q01DX009 (ip), vehicle: saline with Tween-80

Measured: T/C

Cc1ccc([N+](=O)[O-])c(O)c1[N+](=O)[O-]
inactive: [1] 104 % of control | [2] 102 % of control | [3] 93 % of control | [4] 89 % of control | [5] 102 % of control

COc1ccc2c3c(c4cc(OC)c(OC)cc4c2c1)CN1CCC[C@H]1[C@@H]3O
inactive: dose: 0.57 mg/kg/injection, schedule: Q01DX Z (ip), vehicle: water 103 % of control | dose: 0.86 mg/kg/injection, schedule: Q01DX Z (ip), vehicle: water 106 % of control | dose: 1.3 mg/kg/injection, schedule: Q01DX Z (ip), vehicle: water 111 % of control | dose: 2.0 mg/kg/injection, schedule: Q01DX Z (ip), vehicle: water 119 % of control | dose: 9.0 mg/kg/injection, schedule: Q01DX015 (ip), vehicle: acid diluted with saline 118 % of control | dose: 12.0 mg/kg/injection, schedule: Q01DX015 (ip), vehicle: acid diluted with saline 112 % of control

O=[N+]([O-])c1cc(F)c(F)cc1F
inactive: [2] 98 % of control | [4] 107 % of control

COc1nc2c(N)ncnc2n1C1OC(CO)C(O)C1O (centres undefined)
inactive: [6] 97 % of control | [7] 103 % of control | [8] 103 % of control

CC1(O)CCCCCC1
inactive: dose: 50.0 mg/kg/injection, schedule: Q01DX001 (ip), vehicle: carboxymethylcellulose (CMC) 107 % of control | dose: 100.0 mg/kg/injection, schedule: Q01DX001 (ip), vehicle: carboxymethylcellulose (CMC) 100 % of control | dose: 200.0 mg/kg/injection, schedule: Q01DX001 (ip), vehicle: carboxymethylcellulose (CMC) 94 % of control | dose: 400.0 mg/kg/injection, schedule: Q01DX001 (ip), vehicle: carboxymethylcellulose (CMC) 89 % of control

CN(C)C(=O)C1C2C=CC(C3CC23)C1C(=O)N(C)C (centres undefined)
inactive: dose: 100.0 mg/kg/injection, schedule: Q04DX003 (ip), vehicle: saline 95 % of control | dose: 200.0 mg/kg/injection, schedule: Q04DX003 (ip), vehicle: saline 90 % of control | dose: 400.0 mg/kg/injection, schedule: Q04DX003 (ip), vehicle: saline 95 % of control

O=S(=O)(O)c1ccc(Cl)c(Cl)c1
inactive: dose: 100.0 mg/kg/injection, schedule: Q04DX002 (ip), vehicle: saline 107 % of control | dose: 200.0 mg/kg/injection, schedule: Q04DX002 (ip), vehicle: saline 100 % of control | dose: 400.0 mg/kg/injection, schedule: Q04DX002 (ip), vehicle: saline 107 % of control

COc1cc(C)c(Cc2cnc(N)nc2N)cc1OC
inactive: [2] 97 % of control | [4] 89 % of control

O=C1CCCCC1CCCBr (centres undefined)
inactive: dose: 100.0 mg/kg/injection, schedule: Q01DX001 (ip), vehicle: saline with Tween-80 102 % of control | dose: 200.0 mg/kg/injection, schedule: Q01DX001 (ip), vehicle: saline with Tween-80 98 % of control | dose: 400.0 mg/kg/injection, schedule: Q01DX001 (ip), vehicle: saline with Tween-80 95 % of control

CC(C)CC(=O)OC1CCCCC1
inactive: [9] 106 % of control | [10] 101 % of control | [11] 95 % of control

O=c1[nH]c(-c2ccccc2N=NN2CCCCC2)nc2ccccc12
inactive: dose: 25.0 mg/kg/injection, schedule: Q04DX002 (ip), vehicle: saline with Tween-80 100 % of control | dose: 50.0 mg/kg/injection, schedule: Q04DX002 (ip), vehicle: saline with Tween-80 103 % of control | [12] 103 % of control | [13] 88 % of control

Cc1ccc(C(=O)C(C)CN2CCCCC2)cc1 (centres undefined)
inactive: [6] 97 % of control | [7] 94 % of control

O=[N+]([O-])c1ccc2c(c1[N+](=O)[O-])CCCC2
inactive: [14] 93 % of control | [9] 93 % of control | [15] 98 % of control | [10] 93 % of control | [16] 98 % of control | [11] 98 % of control

S=C1NC2(CCCCC2)NC12CCCCC2
inactive: [1] 97 % of control | [2] 101 % of control | [3] 98 % of control | [4] 103 % of control | dose: 400.0 mg/kg/injection, schedule: Q01DX009 (ip), vehicle: Klucel (hydroxypropylcellulose) (HPC) 93 % of control | [5] 101 % of control

CCCCC(CC)C1NCCO1 (centres undefined)
inactive: dose: 50.0 mg/kg/injection, schedule: Q01DX009 (ip), vehicle: saline with Tween-80 87 % of control | [14] 100 % of control | [9] 105 % of control | [15] 93 % of control | [10] 86 % of control

Nc1nc(N2CCCCC2)c2nc(Cl)n(C3OC(CO)C(O)C3O)c2n1 (centres undefined)
inactive: [6] 96 % of control | [7] 94 % of control | [8] 97 % of control

Clc1nnc(Cl)c(Cl)c1Cl
inactive: dose: 0.31 mg/kg/injection, schedule: Q01DX009 (ip), vehicle: saline 101 % of control | dose: 0.5 mg/kg/injection, schedule: Q01DX Z (ip), vehicle: carboxymethylcellulose (CMC) 98 % of control | dose: 0.62 mg/kg/injection, schedule: Q01DX009 (ip), vehicle: saline 98 % of control | dose: 0.62 mg/kg/injection, schedule: Q04DX003 (ip), vehicle: acetone 96 % of control | dose: 0.75 mg/kg/injection, schedule: Q01DX009 (ip), vehicle: saline 104 % of control | dose: 1.0 mg/kg/injection, schedule: Q01DX Z (ip), vehicle: carboxymethylcellulose (CMC) 96 % of control | dose: 1.25 mg/kg/injection, schedule: Q01DX009 (ip), vehicle: saline 96 % of control | dose: 1.25 mg/kg/injection, schedule: Q04DX003 (ip), vehicle: acetone 89 % of control | dose: 1.5 mg/kg/injection, schedule: Q01DX009 (ip), vehicle: saline 97 % of control | dose: 1.8 mg/kg/injection, schedule: Q01DX009 (ip), vehicle: saline with Tween-80 102 % of control | dose: 2.0 mg/kg/injection, schedule: Q01DX Z (ip), vehicle: carboxymethylcellulose (CMC) 93 % of control | dose: 2.5 mg/kg/injection, schedule: Q01DX001 (ip), vehicle: saline 97 % of control | dose: 2.8 mg/kg/injection, schedule: Q01DX009 (ip), vehicle: saline with Tween-80 108 % of control | dose: 3.0 mg/kg/injection, schedule: Q01DX009 (ip), vehicle: saline 97 % of control | dose: 4.0 mg/kg/injection, schedule: Q01DX015 (ip), vehicle: carboxymethylcellulose (CMC) 96 % of control | dose: 4.0 mg/kg/injection, schedule: Q01DX Z (ip), vehicle: carboxymethylcellulose (CMC) 93 % of control | dose: 4.2 mg/kg/injection, schedule: Q01DX009 (ip), vehicle: saline with Tween-80 94 % of control | dose: 8.0 mg/kg/injection, schedule: Q01DX015 (ip), vehicle: carboxymethylcellulose (CMC) 93 % of control

CNC(=O)NS(=O)(=O)c1ccc(Cl)cc1
inactive: dose: 100.0 mg/kg/injection, schedule: Q04DX002 (ip), vehicle: saline with Tween-80 97 % of control and 102 % of control | [9] 103 % of control and 105 % of control | [12] 98 % of control and 91 % of control | [10] 94 % of control and 101 % of control | [13] 97 % of control and 98 % of control | [11] 115 % of control and 90 % of control

O=C(NNc1ccccc1)C(O)C(O)C(O)C(O)CO (centres undefined)
inactive: [14] 100 % of control | [15] 96 % of control | [16] 104 % of control

CCC1=C[C@H]2CN(CCc3c([nH]c4ccccc34)[C@@](C(=O)OC)(c3cc4c(cc3OC)N(C)[C@H]3[C@@](O)(C(=O)OC)[C@H](OC(C)=O)[C@]5(CC)C=CCN6CC[C@]43[C@@H]65)C2)C1
inactive: dose: 0.25 mg/kg/injection, schedule: Q01DX009 (ip), vehicle: water 109 % of control | dose: 0.5 mg/kg/injection, schedule: Q01DX009 (ip), vehicle: water 101 % of control | dose: 1.0 mg/kg/injection, schedule: Q01DX009 (ip), vehicle: water 111 % of control | dose: 2.0 mg/kg/injection, schedule: Q01DX009 (ip), vehicle: water 103 % of control | dose: 4.0 mg/kg/injection, schedule: Q01DX009 (ip), vehicle: water 114 % of control | dose: 8.0 mg/kg/injection, schedule: Q01DX009 (ip), vehicle: water 112 % of control

CC(=O)Oc1c(Cl)cc(Cl)cc1Cl
inactive: [14] 107 % of control | [15] 100 % of control | [16] 100 % of control

O=C1C2CC=C(c3ccccc3)C1CCC2 (centres undefined)
inactive: dose: 75.0 mg/kg/injection, schedule: Q01DX001 (ip), vehicle: other 103 % of control | dose: 150.0 mg/kg/injection, schedule: Q01DX001 (ip), vehicle: other 97 % of control | dose: 300.0 mg/kg/injection, schedule: Q01DX001 (ip), vehicle: other 102 % of control
